Source: patent US8182527B2, “Heparin barrier coating for controlled drug release” (Cordis Corporation, priority 2001, dated 2012)
Each block holds one compound with its values, some of them ahead of it.

What was measured:
[1] = Cell viability assay; type: cell-based
Source text: (§1) The multiple curves represent various concentrations of topotecan ranging from zero to three hundred nanomolar concentrations.
(§2) The multiple curves represent various concentrations of etoposide ranging from zero to eight hundred nanomolar concentrations.

[2] = tested on: human coronary artery smooth muscle cells; experiment: Anti-proliferative activity in synchronized cultured human coronary artery smooth muscle cells stimulated with two percent fetal bovine serum; type: cell-based; details: for effect on the anti-proliferative rapamycin dose response curve: added to cells treated with rapamycin
Source text: as §1, §2
The multiple curves represent various concentrations of Panzem® ranging from zero to 100 micromolar concentrations.

[3] = type: physicochemical; details: 0.02 weight percent per total basecoat solids
Source text: Referring to FIG. 75, there is illustrated in graphical format, the results of the same drug screening as described above with the solution applied to a cobalt-chromium, 18 mm stent. In this test, two sets of solution samples were utilized, one with sirolimus and polymer solution containing the antioxidant and one with sirolimus and polymer solution containing no antioxidant. The antioxidant utilized was 0.02 weight percent BHT per total basecoat solids. The test was utilized to determine the percent drug content change over a time period of 0 to 12 weeks under two conditions; namely, 40° C. with 75 percent relative humidity, and ambient conditions (25° C.).

[4] = tested on: human coronary artery smooth muscle cells; experiment: Anti-proliferative activity in non-synchronized cultured human coronary artery smooth muscle cells stimulated with two percent fetal bovine serum; type: cell-based; details: for effect on the anti-proliferative rapamycin dose response curve: added to cells treated with rapamycin
Source text: The multiple curves represent various concentrations of mycophenolic acid ranging from zero to one thousand nanomolar concentrations. […] This potentiation observed in cultured coronary artery smooth muscle cells preferably translates to an enhancement in anti-restenotic efficacy following vascular injury and a reduction in the required amount of either agent to achieve the desired anti-restenotic effect.
FIG. 58 illustrates, in graphical format, the anti-proliferative activity of cladribine in non-synchronized cultured human coronary artery smooth muscle cells stimulated with two percent fetal bovine serum.
The multiple curves represent various concentrations of cladribine ranging from zero to nine hundred nanomolar concentrations. […] As illustrated, the percent inhibition increases substantially as the dose of cladribine increases.

[5] = tested on: human coronary artery smooth muscle cell survival; experiment: MTS cytotoxicity assay; type: cell-based; details: 6.6 to 30,000.00 nanomolar tested
Source text: Typically, a control is utilized to determine baseline toxicity.

[6] = Drug concentration in liquid formulations by liquid chromatography / HPLC; type: physicochemical
Experimental: Table 8, shown below, summarizes the concentrations of the excipient, the co-solvents and the drug for four different liquid formulations in accordance with exemplary embodiments of the present invention.
As set forth above, a liquid formulation comprising 4 mg/ml of sirolimus may be achieved utilizing PEG 200 as the excipient and ethanol and water as the co-solvents. […] The high concentration of sirolimus is necessary to maintain an effective and high local concentration of sirolimus after delivery to the site. The liquid formulations are flowable at room temperature and are compatible with a number of delivery devices. Specifically, each of these formulations were successfully injected through an infusion catheter designated by the brand name CRESCENDO™ from Cordis Corporation, Miami, Fla., as described in more detail subsequently, and the EndoBionics Micro Syringe™ Infusion Catheter available from EndoBionics, Inc., San Leandros, Calif., as described in more detail above, in porcine studies.
In another exemplary embodiment, the liquid formulation of sirolimus comprises water and ethanol as co-solvents and Vitamin E TPGS as the excipient. The liquid formulation was created utilizing the following process. Two hundred milligrams of sirolimus and two grams of ethanol were added to a pre-weighed twenty milliliter scintillation vial. […]

[7] = tested on: human coronary artery smooth muscle cell proliferation; experiment: In vitro cell culture study of coronary artery smooth muscle cell proliferation (trichostatin A); type: cell-based
Source text: FIG. 51 is a graph of the inhibition of coronary artery smooth muscle cells by trichostatin A in a cell culture study.

SMILES: COc1cc([C@@H]2c3cc4c(cc3[C@@H](O[C@@H]3O[C@@H]5CO[C@@H](C)O[C@H]5[C@H](O)[C@H]3O)[C@H]3COC(=O)[C@H]23)OCO4)cc(OC)c1O [etoposide]
- cytotoxicity in cell viability assay ([1]; concentrations up to ten micromolar): non-cytotoxic
- effect on the anti-proliferative rapamycin dose response curve [2]: potentiate the anti-proliferative activity of rapamycin

SMILES: Cc1cc(C(C)(C)C)c(O)c(C(C)(C)C)c1 [BHT, Butylated Hydroxytoluene]
- effect on drug degradation on coated stent [3]: lessens drug degradation at both 8 weeks and 12 weeks under ambient conditions

SMILES: COc1c(C)c2c(c(O)c1C/C=C(\C)CCC(=O)O)C(=O)OC2 [mycophenolic acid]
- effect on the anti-proliferative rapamycin dose response curve [4]: potentiates the anti-proliferative activity of rapamycin

SMILES: COc1cc2c(cc1O)CC[C@@H]1[C@@H]2CC[C@]2(C)[C@@H](O)CC[C@@H]12 [Panzem®, 2-methoxyestradiol]
- effect on the anti-proliferative rapamycin dose response curve [2]: potentiation of rapamycin by Panzem®
- anti-proliferative activity ([2]; two percent fetal bovine serum, alone): extremely effective inhibitor of human coronary artery smooth muscle cell proliferation in vitro
- concentrations that do not reduce human coronary artery smooth muscle cell survival [5]: up to 30,000.00 nanomolar

SMILES: CO[C@H]1C[C@@H]2CC[C@@H](C)[C@@](O)(O2)C(=O)C(=O)N2CCCC[C@H]2C(=O)O[C@H]([C@H](C)C[C@@H]2CC[C@@H](O)[C@H](OC)C2)CC(=O)[C@H](C)/C=C(\C)[C@@H](O)[C@@H](OC)C(=O)[C@H](C)C[C@H](C)/C=C/C=C/C=C/1C [rapamycin]
- concentration relative to the solubility of sirolimus in water ([6]; 4 mg/ml formulation with PEG 200, ethanol and water): about four hundred to about one thousand times higher

- concentration in the final solution (HPLC assay) ([6]; ethanol (less than two percent), Vitamin E TPGS and water): 15000 µg/mL
SMILES: CO[C@H]1C[C@@H]2CC[C@@H](C)[C@@](O)(O2)C(=O)C(=O)N2CCCC[C@H]2C(=O)O[C@H]([C@H](C)C[C@@H]2CC[C@@H](OC(=O)C(C)(CO)CO)[C@H](OC)C2)CC(=O)[C@H](C)/C=C(\C)[C@@H](O)[C@@H](OC)C(=O)[C@H](C)C[C@H](C)/C=C/C=C/C=C/1C [CCI-779]

SMILES: Nc1nc(Cl)nc2c1ncn2[C@H]1C[C@H](O)[C@@H](CO)O1 [Cladribine, 2-chlorodeoxyadenosine]
- effect on the anti-proliferative rapamycin dose response curve [4]: potentiate the anti-proliferative activity of rapamycin
- inhibition of human coronary artery smooth muscle cell proliferation ([4]; two percent fetal bovine serum): completely inhibits

SMILES: CC[C@@]1(O)C(=O)OCc2c1cc1n(c2=O)Cc2cc3c(CN(C)C)c(O)ccc3nc2-1 [topotecan]
- cytotoxicity in cell viability assay ([1]; concentrations up to one micromolar): non-cytotoxic
- effect on the anti-proliferative rapamycin dose response curve [2]: potentiate the anti-proliferative activity of rapamycin

SMILES: CC(/C=C/C(=O)NO)=C\[C@@H](C)C(=O)c1ccc(N(C)C)cc1 [trichostatin A]
- inhibition of human coronary artery smooth muscle cell proliferation [7]: completely inhibit
- IC50 ([7]; human coronary artery smooth muscle cells, read-out: anti-proliferative IC50): ~6 nM
